Molecules are shown by their SMILES.

By IC50 is commonly meant the concentration needed to halve the response being measured.

This test deals with p38α MAP kinase (Homo sapiens, UniProt Q16539). In words: p38α MAP kinase inhibition assay (non radioactive immunosorbent enzyme assay, ATF-2 phosphorylation; Ultra Glo Promega kit). It is filed as biochemical. The following applies: mean of four separated experiments; compounds assayed at 10^−4 to 10^−8 M.
p38α MAP kinase, sequence (Q16539 whole entry): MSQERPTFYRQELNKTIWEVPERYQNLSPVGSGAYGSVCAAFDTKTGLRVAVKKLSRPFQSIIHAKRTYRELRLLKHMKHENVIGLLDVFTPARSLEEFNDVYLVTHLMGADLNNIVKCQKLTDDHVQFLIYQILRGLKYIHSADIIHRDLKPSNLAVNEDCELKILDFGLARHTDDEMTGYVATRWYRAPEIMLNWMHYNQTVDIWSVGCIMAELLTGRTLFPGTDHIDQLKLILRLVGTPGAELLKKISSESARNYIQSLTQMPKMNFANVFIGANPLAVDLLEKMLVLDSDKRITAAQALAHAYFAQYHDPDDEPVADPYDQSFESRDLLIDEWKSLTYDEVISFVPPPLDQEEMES
For the compound `CC1N(c2ccccc2)OC(=O)N1c1ccc(F)cc1` (centres unmarked) [Compound 3l, 2-Phenyl-4-(4-fluorophenyl)-3-methyl-1,2,4-oxadiazolidin-5-one], the IC50 turned out to be 22.8 µM.

For `O=C1ON(c2ccccc2)C(c2ccncc2)N1c1ccc(Cl)cc1` (centres unmarked) [Compound 3d, 2-Phenyl-4-(4-chlorophenyl)-3-(pyridin-4-yl)-1,2,4-oxadiazolidin-5-one], the IC50 turned out to be 1.5 µM.

As to `O=C1ON(Cc2ccccc2)C(c2ccncc2)N1c1ccc([N+](=O)[O-])cc1` (centres unmarked) [Compound 3f, 2-Benzyl-4-(4-nitrophenyl)-3-(pyridin-4-yl)-1,2,4-oxadiazolidin-5-one], the IC50 turned out to be 0.15 µM.

Consider `O=C1ON(Cc2ccccc2)C(c2ccccc2)N1c1ccc([N+](=O)[O-])cc1` (centres unmarked) [Compound 3h, 2-Benzyl-4-(4-nitrophenyl)-3-phenyl-1,2,4-oxadiazolidin-5-one], for which the IC50 was determined as 60.5 µM.

For `CC1N(Cc2ccccc2)OC(=O)N1c1ccc(F)cc1` (centres unmarked) [Compound 3i, 2-Benzyl-4-(4-fluorophenyl)-3-methyl-1,2,4-oxadiazolidin-5-one], the 50% inhibitory concentration (IC50) is 18.5 µM.

Turning to `O=C1ON(Cc2ccccc2)C(c2ccccc2)N1c1ccc(F)cc1` (centres unmarked) [Compound 3g, 2-Benzyl-4-(4-fluorophenyl)-3-phenyl-1,2,4-oxadiazolidin-5-one], the 50% inhibitory concentration (IC50) is 15.1 µM.

As to `O=C1ON(Cc2ccccc2)C(c2ccncc2)N1c1ccc(F)cc1` (centres unmarked) [Compound 3e, 2-Benzyl-4-(4-fluorophenyl)-3-(pyridin-4-yl)-1,2,4-oxadiazolidin-5-one], the IC50 is 0.08 µM.

Turning to `O=C1ON(c2ccccc2)C(c2ccncc2)N1c1ccc(C(F)(F)F)cc1` (centres unmarked) [Compound 3c, 2-Phenyl-4-(4-trifluoromethyl)-3-(pyridin-4-yl)-1,2,4-oxadiazolidin-5-one], the half-maximal inhibitory concentration (IC50) worked out at 2 µM.

The values above are taken from publication PMC8003627, “Synthesis and Biological Evaluation of 2,3,4-Triaryl-1,2,4-oxadiazol-5-ones as p38 MAPK Inhibitors” (Molecules, 2021).
